From US12103932B2, “Process for preparing substituted imidazo[4,5-c]pyrazoles” (Imam Abdulrahman Bin Faisal University, priority 2021, dated 2024)

Key:
Assay in all cases: Paper disk diffusion antibacterial test
Format in all cases: cell-based
[1] = tested on: Staphylococcus epidermidis ATCC 12228
Procedure: (§1) In Vitro antimicrobial activity was evaluated using both gram-positive and gram-negative bacterial strains. The results reproduced here are exemplary and may include other microorganisms such as Escherichia coli, Listeria monocytogenes, Lactobacillus, yeast, vancomycin-resistant Enterococcus, molds, and spores. The in vitro antibacterial activity was evaluated for. gram-positive bacteria (Staphylococcus aureus ATCC 29213 and Staphylococcus epidermidis ATCC 12228) and gram-negative bacteria (Pseudomonas aeruginosa ATCC 27853) obtained from King Fahd Hospital, AlKhobar, Saudi Arabia.
(§2) Antimicrobial activity of three imidazopyrazole derivatives (1), (2) and (3) were evaluated qualitatively by paper disk diffusion method [CLSI.; Approved Standard, 11th ed.; CLSI document M02-A11; Clinical and Laboratory Standards Institute: Wayne, PA, USA, 2012, incorporated herein by reference in its entirety]. The three chemical materials i.e. compounds (1), (2) and (3) were prepared in different concentrations as follows: 0.01, 0.02, 0.03, 0.05, and 0.1 g/mL in dimethyl sulfoxide (DMSO) and tested directly. Paper discs measured 6 mm in diameter were soaked separately with 100 μL of the chemical materials and were left to dry. Bacterial inoculums were prepared from previous cultures in Muller-Hinton broth. The bacterial cell suspension turbidity was adjusted to a 0.5 McFarland standard, which represented approximately 1-2×10^8 colony-forming units (CFU)/mL using a Biomerieux DensiCHEK plus meter device (Missouri, MO, USA). Bacterial inoculums at 0.5 mL were transferred to petri plates under sterilized conditions. Melted Muller-Hinton agar at approximately 50° C. was poured over the inoculums, and to ensure even distribution of the inoculums, the plates were rotated neatly, then cultures were left to harden for 5 min. Then, previously prepared paper discs, saturated with chemicals, were transferred, using sterilized forceps, to the surface of petri plates that contained the bacterial cultures. Gentamicin (CN10 μg), aminoglycosides antibiotic was used as the positive control and DMSO was used as the negative control. The petri plates were placed in the refrigerator (General Electric, Medford, MA, USA) to allow diffusion of the chemicals into the agar for an hour. Then the petri plates were incubated at 37° C. for 24 h. After the incubation period ended, the area of inhibition around the discs was measured with a ruler. Three replicants were made to ensure the accuracy of the experiment.

[2] = tested on: Pseudomonas aeruginosa ATCC 27853
Procedure: as §1, §2

[3] = tested on: Staphylococcus aureus ATCC 29213
Procedure: as §1, §2

[4] = 0.05 g/mL in DMSO, 6 mm paper disc, 37° C. 24 h
[5] = 0.1 g/mL in DMSO, 6 mm paper disc, 37° C. 24 h

Compound | zone of inhibition (mm) means ± SD [1, 4] [mm] | zone of inhibition (mm) means ± SD [1, 5] [mm] | zone of inhibition (mm) means ± SD [2, 4] [mm] | zone of inhibition (mm) means ± SD [2, 5] [mm] | zone of inhibition (mm) means ± SD [3, 4] [mm] | zone of inhibition (mm) means ± SD [3, 5] [mm] | zone of inhibition (mm) means ± SD ([1]; positive control, CN10 μg disc) [mm] | zone of inhibition (mm) means ± SD ([2]; positive control, CN10 μg disc) [mm] | zone of inhibition (mm) means ± SD ([3]; positive control, CN10 μg disc) [mm] | area of inhibition zone compared with positive control gentamicin ([3]; at the concentrations 0.05 g/mL and 0.01 g/mL, gentamicin CN10 μg)
CCOC(=O)CSC1=NC2C(C)=NN(c3ccccc3)C2=N1 (stereo not shown) [(3), Ethyl 2-((3-Methyl-1-Phenyl-1,3adihydroimidazo[4,5-c] Pyrazol-5-yl)thio) Acetate] | 7.3 ± 0.6 | 8.7 ± 0.6 | 7.3 ± 0.6 | 7.3 ± 0.6 | 7.3 ± 0.6 | 8.7 ± 0.6 | – | – | – | –
CC1=NN(c2ccccc2)C2=NC(=S)NC12 (stereo not shown) [(1), 3-Methyl-1-Phenyl-3a,4-Dihydro Imidazo(4,5-c) Pyrazole-5(1H)-Thione] | 8.3 ± 0.6 | 8.3 ± 0. | 10.0 ± 1.0 | 11.0 ± 1.0 | 7.7 ± 0.6 | 9.0 ± 1.0 | – | – | – | –
Gentamicin [reference compound] | – | – | – | – | – | – | 21.3 ± 1.2 | 20.7 ± 1.2 | 18.7 ± 1.5 | –
CC1=NN(c2ccccc2)C2=NC(NC(N)=S)=NC12 (stereo not shown) [(2), 1-(3-Methyl-1-Phenyl-1,3a-Dihydroimidazo[4,5-c] Pyrazol-5-yl) Thiourea] | 8.3 ± 0.6 | 9.3 ± 0.6 | 7.7 ± 0.6 | 8.3 ± 0.6 | 18.0 ± 0.0 | 18.7 ± 0.6 | – | – | – | equal to gentamicin
